The series in a line: Dog IV cassette pharmacokinetic studies. The conditions noted are these: plasma, IV cassette 0.05 mg/kg. The series is classed as in vivo. The protocol:
Procedure for Dog IV Cassette Pharmacokinetic Studies
Plasma pharmacokinetic parameters for clearance, volume of distribution, half-life, and mean residence time (MRT) were determined in dogs from IV cassette administration studies. 2 male dogs, typically weighing 8-12 kg, were fasted overnight prior to dosing. IV formulation was administered to 2 dogs via the saphenous or cephalic vein. Blood was collected by the cephalic or jugular vein, typically at predose, 2, 8, 15, 30 min, 1, 2, 4, 6, 8 and 24 h postdose. Samples were collected in K2EDTA tubes, stored on ice, and centrifuged. Plasma was transferred to a micro titer plate and stored at −70° C. until analysis. Plasma samples were extracted using protein precipitation and analyzed by liquid chromatography separation followed by mass spec detection (LC-MS/MS), using a standard curve for each compound. Plasma pharmacokinetic parameters were calculated by non-compartmental methods.

With `CCc1c(F)ccc2cc3[nH]nc(C)c3c(-c3nc4c5c(nc(OC[C@@]67CCCN6C/C(=C\F)C7)nc5c3F)N3CCCOC[C@H]3CO4)c12` [Ex-7, (8aS)-5-(5-ethyl-6-fluoro-3-methyl-1H-benzo[f]indazol-4-yl)-4-fluoro-2-(((S,Z)-2-(fluoromethylene)tetrahydro-1H-pyrrolizin-7a(5H)-yl)methoxy)-8a,9,12,13-tetrahydro-8H,11H-7,10-dioxa-1,3,6,13a-tetraazanaphtho[1,8-ab]heptalene], the CLp worked out at 7.7 mL/min/kg; the MRT – broadly, a mean duration of stay, worked out from the concentration-time curve – came to 3.1 h; the volume of distribution (Vd) (in general, a proportionality between amount in the body and measured concentration, not a real space) stood at 1.4 L/kg.

The values are drawn from patent US12466840B2, “Small molecule inhibitors of KRAS proteins” (Merck Sharp & Dohme LLC, priority 2023, dated 2025).
